According to patent publication US20250381157A1, “ANTIMICROBIAL COMPOUNDS” (priority 2022, published 2025):

Experiments:
recombinant human HDAC3 = molecular target: T1, recombinant human HDAC3 (Homo sapiens, UniProt O15379); assay: HDAC3 in-vitro enzymatic assay; type: biochemical
T1 construct: purchased BPS 50003
Procedure: (§1) All of the compounds were dissolved in DMSO. A series of dilutions of the compounds were prepared with 10% DMSO in HDAC assay buffer and 5 μl of the dilution was added to a 50 μl reaction so that the final concentration of DMSO was 1% in all of reactions. The compounds were pre-incubated in duplicate at RT for 30 minutes in a mixture containing HDAC assay buffer, 5 μg BSA, HDAC enzyme and a test compound. After 30 minutes, the enzymatic reactions were initiated by the addition of HDAC substrate to a final concentration of 20 μM or 2 μM. The enzymatic reaction proceeded for 30 minutes at 37° C. After enzymatic reactions, 50 μl of 2×HDAC Developer was added to each well for the HDAC enzymes and the plate was incubated at room temperature for an additional 15 minutes. Fluorescence intensity was measured at an excitation of 360 nm and an emission of 460 nm using a Tecan Infinite M1000 microplate reader.
(§2) HDAC activity assays were performed in duplicates at each concentration. The fluorescent intensity data were analyzed using the computer software, Graphpad Prism. […] The percent activity in the presence of each compound was calculated according to the following equation: % activity=(F−Fb)/(Ft−Fb), where F=the fluorescent intensity in the presence of the compound. […] The IC50 value was determined by the concentration causing a half-maximal percent activity.

recombinant human HDAC4 = molecular target: T2, recombinant human HDAC4 (Homo sapiens, UniProt P56524); assay: HDAC4 in-vitro enzymatic assay; type: biochemical
T2 construct: purchased BPS 50004
Procedure: as §1, §2

recombinant human HDAC5 = molecular target: T3, recombinant human HDAC5 (Homo sapiens, UniProt Q9UQL6); assay: HDAC5 in-vitro enzymatic assay; type: biochemical
T3 construct: purchased BPS 50005
Procedure: as §1, §2

in vivo = conditions: mouse, po
Plasma stability Rat = type: in vitro ADME
recombinant human HDAC8 = molecular target: T4, recombinant human HDAC8 (Homo sapiens, UniProt Q9BY41); assay: HDAC8 in-vitro enzymatic assay; type: biochemical
T4 construct: purchased BPS 50008
T4 sequence (Q9BY41 1-377): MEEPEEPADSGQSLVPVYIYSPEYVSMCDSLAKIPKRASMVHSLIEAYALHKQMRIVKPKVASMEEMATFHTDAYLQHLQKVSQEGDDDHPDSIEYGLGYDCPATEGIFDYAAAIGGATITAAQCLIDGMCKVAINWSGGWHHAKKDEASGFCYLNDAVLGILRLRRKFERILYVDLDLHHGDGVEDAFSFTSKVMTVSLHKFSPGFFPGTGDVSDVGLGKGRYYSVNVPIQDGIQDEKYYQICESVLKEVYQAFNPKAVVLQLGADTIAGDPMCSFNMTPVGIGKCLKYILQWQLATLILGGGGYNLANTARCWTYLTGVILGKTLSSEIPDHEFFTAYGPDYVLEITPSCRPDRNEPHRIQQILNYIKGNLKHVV
Procedure: as §1, §2

[1] = Stability SGD, SIF w. Enzymes; type: in vitro ADME
bacteria in culture = assay: in vitro toxicity to bacteria in culture; type: cell-based

T3 sequence (Q9UQL6 whole entry): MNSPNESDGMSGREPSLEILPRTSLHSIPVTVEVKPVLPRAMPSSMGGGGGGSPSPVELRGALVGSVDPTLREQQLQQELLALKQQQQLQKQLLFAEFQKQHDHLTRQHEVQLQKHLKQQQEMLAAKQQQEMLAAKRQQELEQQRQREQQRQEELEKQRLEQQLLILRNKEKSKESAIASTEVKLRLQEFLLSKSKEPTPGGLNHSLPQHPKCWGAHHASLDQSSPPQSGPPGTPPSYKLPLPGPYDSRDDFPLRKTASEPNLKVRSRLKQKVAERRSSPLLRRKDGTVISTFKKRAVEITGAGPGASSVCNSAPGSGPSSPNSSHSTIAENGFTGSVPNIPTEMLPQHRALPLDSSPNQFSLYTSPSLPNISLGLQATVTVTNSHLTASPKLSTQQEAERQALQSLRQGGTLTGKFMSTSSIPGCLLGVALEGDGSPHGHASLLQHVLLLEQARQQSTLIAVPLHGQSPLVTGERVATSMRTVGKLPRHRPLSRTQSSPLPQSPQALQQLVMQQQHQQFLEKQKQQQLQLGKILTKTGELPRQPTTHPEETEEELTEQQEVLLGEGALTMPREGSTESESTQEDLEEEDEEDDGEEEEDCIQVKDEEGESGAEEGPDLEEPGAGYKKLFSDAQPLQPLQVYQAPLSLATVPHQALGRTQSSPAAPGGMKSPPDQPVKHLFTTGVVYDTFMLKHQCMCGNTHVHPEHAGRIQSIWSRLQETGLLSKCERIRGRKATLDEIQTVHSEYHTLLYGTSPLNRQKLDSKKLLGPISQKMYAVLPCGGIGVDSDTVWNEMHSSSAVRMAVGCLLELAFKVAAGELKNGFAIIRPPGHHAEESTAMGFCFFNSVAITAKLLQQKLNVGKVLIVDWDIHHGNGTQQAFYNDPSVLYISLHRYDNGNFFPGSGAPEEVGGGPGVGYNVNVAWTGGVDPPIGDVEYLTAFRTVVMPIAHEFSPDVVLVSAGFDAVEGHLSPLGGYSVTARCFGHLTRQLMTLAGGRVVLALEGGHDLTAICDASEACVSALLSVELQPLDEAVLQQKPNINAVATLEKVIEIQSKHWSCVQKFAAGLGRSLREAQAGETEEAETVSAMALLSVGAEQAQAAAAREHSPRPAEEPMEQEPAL
T2 sequence (P56524 whole entry): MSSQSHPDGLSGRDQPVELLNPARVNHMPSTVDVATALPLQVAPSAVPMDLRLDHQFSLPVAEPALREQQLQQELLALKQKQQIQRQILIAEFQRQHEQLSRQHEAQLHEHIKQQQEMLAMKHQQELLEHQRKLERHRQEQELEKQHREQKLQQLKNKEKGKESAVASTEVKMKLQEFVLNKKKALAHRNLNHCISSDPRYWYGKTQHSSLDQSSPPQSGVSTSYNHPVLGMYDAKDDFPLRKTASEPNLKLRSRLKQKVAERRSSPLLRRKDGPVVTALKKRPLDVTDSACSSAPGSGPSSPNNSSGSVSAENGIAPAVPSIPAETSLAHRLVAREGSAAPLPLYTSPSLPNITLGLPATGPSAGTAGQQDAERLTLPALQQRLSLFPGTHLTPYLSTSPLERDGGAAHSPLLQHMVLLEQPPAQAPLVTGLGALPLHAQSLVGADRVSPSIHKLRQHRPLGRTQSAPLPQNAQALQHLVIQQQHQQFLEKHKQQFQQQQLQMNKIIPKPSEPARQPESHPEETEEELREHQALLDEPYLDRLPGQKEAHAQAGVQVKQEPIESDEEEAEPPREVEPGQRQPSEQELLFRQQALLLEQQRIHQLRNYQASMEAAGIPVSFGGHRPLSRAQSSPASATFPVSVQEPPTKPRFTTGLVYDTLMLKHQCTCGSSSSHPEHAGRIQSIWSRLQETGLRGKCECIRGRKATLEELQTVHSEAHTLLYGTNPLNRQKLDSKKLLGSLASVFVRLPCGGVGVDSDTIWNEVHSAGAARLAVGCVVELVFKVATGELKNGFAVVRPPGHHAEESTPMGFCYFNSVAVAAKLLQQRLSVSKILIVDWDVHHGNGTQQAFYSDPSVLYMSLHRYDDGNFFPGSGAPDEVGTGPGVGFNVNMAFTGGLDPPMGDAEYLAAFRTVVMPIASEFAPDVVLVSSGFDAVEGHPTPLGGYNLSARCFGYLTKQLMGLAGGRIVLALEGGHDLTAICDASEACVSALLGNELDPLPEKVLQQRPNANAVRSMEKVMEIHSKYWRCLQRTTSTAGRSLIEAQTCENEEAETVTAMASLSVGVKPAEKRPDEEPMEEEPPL
T1 sequence (O15379 whole entry): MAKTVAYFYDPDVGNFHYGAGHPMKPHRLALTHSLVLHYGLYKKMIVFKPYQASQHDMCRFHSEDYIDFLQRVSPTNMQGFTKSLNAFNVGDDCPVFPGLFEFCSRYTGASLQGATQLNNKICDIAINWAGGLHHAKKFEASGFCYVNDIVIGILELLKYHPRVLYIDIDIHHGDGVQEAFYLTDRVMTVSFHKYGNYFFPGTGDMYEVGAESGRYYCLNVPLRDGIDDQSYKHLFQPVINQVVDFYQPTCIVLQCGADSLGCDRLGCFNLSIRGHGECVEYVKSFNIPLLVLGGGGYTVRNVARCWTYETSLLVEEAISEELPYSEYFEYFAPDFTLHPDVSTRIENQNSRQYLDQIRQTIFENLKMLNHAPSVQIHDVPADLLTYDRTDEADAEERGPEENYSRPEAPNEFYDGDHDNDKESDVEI
T1 sequence (Q9Y618 395-489 partner limits assumed): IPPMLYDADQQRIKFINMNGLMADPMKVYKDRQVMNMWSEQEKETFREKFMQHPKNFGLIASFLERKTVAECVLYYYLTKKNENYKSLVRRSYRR

For C#CCOCC(=O)Nc1ccc(C(=O)Nc2ccccc2N)cc1 [Compound 1, N-(2-aminophenyl)-4-{2-[(prop-2-yn-1-yl)oxy]acetamido}benzamide], the IC50 (recombinant human HDAC3) was no more than 1 µM, the inhibition at 1 µM (recombinant human HDAC3; @ 1 μM, read-out: Inhib. HDAC3) was 61% and the IC50 (recombinant human HDAC4) was greater than 200 µM. For the same compound, the “Inhib. HDAC4” value (recombinant human HDAC4; @ 200 μM) was “No Inhib. @ 200 μM”, the IC50 (recombinant human HDAC5) was greater than 200 µM and the “Inhib. HDAC5” value (recombinant human HDAC5; @ 200 μM) was “No Inhib. @ 200 μM”. For the same compound, the MTD at 7 days (in vivo; 7 Days PO once daily MTD - mouse) was greater than 50 mg/kg, the MTD at 7 days (in vivo; 7 Days PO twice daily MTD - mouse) was 50 mg/kg and the “Plasma stability Rat” value (Plasma stability Rat) was “High”. The IC50 (recombinant human HDAC8) was greater than 200 µM, the inhibition at 200 µM (recombinant human HDAC8; @ 200 μM, read-out: Inhib. HDAC8) was 42% and the “Stability SGD, SIF w. Enzymes” value [1] was “High”. For the same compound, the “toxicity to bacteria in culture” value (bacteria in culture) was “not toxic”.
